Laboratory results: article PMC4076177, “Soluble Phosphatidylserine Binds to Two Sites on Human Factor IXa in a Ca^2+ Dependent Fashion to Specifically Regulate Structure and Activity” (PLoS ONE, 2014)

biological target: T1, Human FIXa (Homo sapiens, UniProt P00740); assay: intrinsic fluorescence titration, single-site hyperbolic fit; type: binding; conditions: 5 mM CaCl2, 0.20 µM FIXa, 50 mM Tris, 150 mM NaCl, 0.6% PEG, pH 7.5, 22°C; unreliable (Figure 2 legend prints 2000 µM)
T1 construct: gene F9; purchased from Haematologic Technologies, no tag stated
Source text: intrinsic fluorescence titration, single-site hyperbolic fit on Human FIXa

T1 sequence (P00740 47-191): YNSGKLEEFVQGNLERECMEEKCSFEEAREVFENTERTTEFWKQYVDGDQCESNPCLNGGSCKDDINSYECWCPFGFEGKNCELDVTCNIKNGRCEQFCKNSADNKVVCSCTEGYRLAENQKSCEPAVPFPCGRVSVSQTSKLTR
T1 sequence (P00740 227-461): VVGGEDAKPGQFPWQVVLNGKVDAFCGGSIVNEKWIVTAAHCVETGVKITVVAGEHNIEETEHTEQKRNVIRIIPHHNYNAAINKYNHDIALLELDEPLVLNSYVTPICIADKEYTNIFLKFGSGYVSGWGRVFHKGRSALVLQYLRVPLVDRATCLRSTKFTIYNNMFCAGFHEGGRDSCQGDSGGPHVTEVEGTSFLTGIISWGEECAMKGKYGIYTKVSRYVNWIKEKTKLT

SMILES	Kd, μM (determined by monitoring change in intrinsic fluorescence)
CCCCCC(=O)OC[C@H](COP(=O)([O-])OCC[N+](C)(C)C)OC(=O)CCCCC [C6PC]	1000 ± 45 µM

same assay, conditions: read-out: Kd, μM (determined by monitoring change in intrinsic fluorescence)

SMILES	Kd
CCCCCC(=O)OC[C@H](COP(=O)(O)OC[C@@H](N)C(=O)O)OC(=O)CCCCC [C6(D)PS]	208 ± 18 µM
CCCCCC(=O)OC[C@H](COP(=O)(O)O)OC(=O)CCCCC [C6PA]	238 ± 42.7 µM
CCCCCC(=O)OC[C@H](COP(=O)(O)OCCN)OC(=O)CCCCC [C6PE]	66 ± 7 µM
CCCCCC(=O)OC[C@H](COP(=O)(O)OCC(O)CO)OC(=O)CCCCC (stereo partly drawn) [C6PG]	307 ± 28.8 µM
CCCCCC(=O)OC[C@H](COP(=O)(O)OC[C@H](N)C(=O)O)OC(=O)CCCCC [C6PS, 1,2-dicaproyl-sn-glycero-3-phospho-L-serine]	1.3 ± 0.2 µM
